Usually Km stands for the substrate concentration at which the rate is half of its maximum. As a reminder, the kcat is the maximal rate divided by the concentration of active sites. One may read the kcat/Km as the turnover number divided by the Michaelis constant.

Converted amounts (≈) assume the structure as drawn.

One series has as its system T1, P. aeruginosa NCGM1984.
T1 construct: NCGM1984 (clinical isolate, ST235, two chromosomal copies of blaIMP-34)
In words: microbe, parasite or virus in culture. Further details: CLSI microdilution susceptibility test, minimum inhibitory concentration of bacterial growth. To be noted: clinical isolate carrying two copies of blaIMP-34; for MIC: Pseudomonas aeruginosa, NCGM1984, read-out: MIC (μg/ml) / P. aeruginosa NCGM1984.

A further series has as its system T2, E. coli DH5α (pHSG398).
T2 construct: DH5α (pHSG398) empty vector control
In words: microbe, parasite or virus in culture. Further details: CLSI microdilution susceptibility test, minimum inhibitory concentration of bacterial growth. The note with it: Escherichia coli; empty vector control; read-out: MIC (μg/ml) / E. coli DH5α (pHSG398). As to the method: (§1) The ORFs of blaIMP-1 and blaIMP-34 were amplified by PCR using the primers EcoRI-IMP-1/34-F(5′-gggGAATTCatgagcaagttatctgtattc-3′; uppercase letters indicate an EcoRI digestion site) and PstI-IMP-1/34-R (5′-aaaCTGCAGttagttgcttggttttgatgg-3′; uppercase letters indicate a PstI digestion site). […] The plasmids were used to transform DH5α, and transformants were selected on LB agar containing 30 μg/mL of chloramphenicol, and their susceptibilities to various β-lactams were assayed. P. aeruginosa NCGM2.S1 harboring blaIMP-1 was used as a reference strain [12].

In series [1] the test system is T3, E. coli DH5α (pHSG398/IMP-1).
T3 construct: DH5α (pHSG398/IMP-1) transformant expressing blaIMP-1 from pHSG398
In words: microbe, parasite or virus in culture. To be noted: Escherichia coli, read-out: MIC (μg/ml) / E. coli DH5α (pHSG398/IMP-1). Further details: CLSI microdilution susceptibility test, minimum inhibitory concentration of bacterial growth. The method, then: as §1

Series [2] has as its system CC1(C)S[C@@H]2[C@H](NC(=O)Cc3ccccc3)C(=O)N2[C@H]1C(=O)O. In words: purified protein. To be noted: 50 mM Tris-HCl pH 7.4, 5 μM Zn(NH3)2, 37°C.
Description: (§2) UV-visible spectrophotometry, initial rates, Lineweaver-Burk plots on IMP-1
Series [3] has as its system CC(C)(O/N=C(\C(=O)N[C@@H]1C(=O)N2C(C(=O)[O-])=C(C[n+]3ccccc3)CS[C@H]12)c1csc(N)n1)C(=O)O. Briefly: purified protein. To be noted: 50 mM Tris-HCl pH 7.4, 5 μM Zn(NH3)2, 37°C.
Description: as §2
Series [4] relates to CO[C@@]1(NC(=O)Cc2cccs2)C(=O)N2C(C(=O)O)=C(COC(N)=O)CS[C@@H]21. In words: purified protein. The note with it: 50 mM Tris-HCl pH 7.4, 5 μM Zn(NH3)2, 37°C.
Description: as §2
Series [5] relates to C[C@@H](O)[C@H]1C(=O)N2C(C(=O)O)=C(S[C@@H]3CN[C@H](CNS(N)(=O)=O)C3)[C@H](C)[C@H]12. Briefly: purified protein. The note with it: 50 mM Tris-HCl pH 7.4, 5 μM Zn(NH3)2, 37°C.
Description: as §2
For series [6], the system named is C[C@@H](O)[C@H]1C(=O)N2C(C(=O)O)=C(SCCN=CN)C[C@H]12. In words: purified protein. To be noted: 50 mM Tris-HCl pH 7.4, 5 μM Zn(NH3)2, 37°C.
Description: as §2
For series [7], the system named is CO/N=C(\C(=O)N[C@@H]1C(=O)N2C(C(=O)O)=C(COC(C)=O)CS[C@H]12)c1csc(N)n1. In words: purified protein. The note with it: 50 mM Tris-HCl pH 7.4, 5 μM Zn(NH3)2, 37°C.
Description: as §2
The subject of series [8] is C[C@@H](O)[C@H]1C(=O)N2C(C(=O)O)=C(S[C@@H]3CN[C@H](C(=O)N(C)C)C3)[C@H](C)[C@H]12. Briefly: purified protein. To be noted: 50 mM Tris-HCl pH 7.4, 5 μM Zn(NH3)2, 37°C.
Description: as §2
Series [9] has as its system CC1(C)S[C@@H]2[C@H](NC(=O)[C@H](N)c3ccccc3)C(=O)N2[C@H]1C(=O)O. In words: purified protein. To be noted: 50 mM Tris-HCl pH 7.4, 5 μM Zn(NH3)2, 37°C.
Description: as §2
Series [10] has as its system CC1=C(C(=O)O)N2C(=O)[C@@H](NC(=O)[C@H](N)C3=CCC=CC3)[C@H]2SC1. Briefly: purified protein. To be noted: 50 mM Tris-HCl pH 7.4, 5 μM Zn(NH3)2, 37°C.
Description: as §2
The test system of series [11] is CO/N=C(\C(=O)N[C@@H]1C(=O)N2C(C(=O)[O-])=C(C[N+]3(C)CCCC3)CS[C@H]12)c1csc(N)n1. In words: purified protein. The note with it: 50 mM Tris-HCl pH 7.4, 5 μM Zn(NH3)2, 37°C.
Description: as §2

`CC1=C(C(=O)O)N2C(=O)[C@@H](NC(=O)[C@H](N)C3=CCC=CC3)[C@H]2SC1` [Cephradine]: the MIC is more than 1020 µg/mL in the series with P. aeruginosa NCGM1984, 16 µg/mL (≈ 45.8 µM) with E. coli DH5α (pHSG398) and 256 µg/mL (≈ 733 µM) in series [1].

For `C[C@@H](O)[C@H]1C(=O)N2C(C(=O)O)=C(S[C@@H]3CN[C@H](CNS(N)(=O)=O)C3)[C@H](C)[C@H]12` [Doripenem], the MIC was more than 1020 µg/mL in the series on P. aeruginosa NCGM1984, not above 0.25 µg/mL in the series with E. coli DH5α (pHSG398) and 0.25 µg/mL (≈ 0.595 µM) in series [1].

As to `CC1(C)S[C@@H]2[C@H](NC(=O)Cc3ccccc3)C(=O)N2[C@H]1C(=O)O` [Penicillin G], the MIC in the series on P. aeruginosa NCGM1984 is more than 1020 µg/mL; with E. coli DH5α (pHSG398), 32 µg/mL (≈ 95.7 µM); in series [1], 128 µg/mL (≈ 383 µM).

Turning to `CO/N=C(\C(=O)N[C@@H]1C(=O)N2C(C(=O)[O-])=C(C[n+]3cccc4c3CCC4)CS[C@H]12)c1csc(N)n1` [Cefpirome], the results for the MIC (in the series on P. aeruginosa NCGM1984; in the series with E. coli DH5α (pHSG398); in series [1]) were 512 µg/mL (≈ 995 µM), not above 0.25 µg/mL and 0.25 µg/mL (≈ 0.486 µM), respectively.

Turning to `C[C@@H](O)[C@H]1C(=O)N2C(C(=O)O)=C(S[C@@H]3CN[C@H](C(=O)N(C)C)C3)[C@H](C)[C@H]12` [Meropenem], the MIC was more than 1020 µg/mL with P. aeruginosa NCGM1984, not above 0.25 µg/mL in the series with E. coli DH5α (pHSG398) and 0.5 µg/mL (≈ 1.3 µM) in series [1].

Turning to `CO/N=C(\C(=O)N[C@@H]1C(=O)N2C(C(=O)[O-])=C(C[N+]3(C)CCCC3)CS[C@H]12)c1csc(N)n1` [Cefepime], the MIC with P. aeruginosa NCGM1984 is more than 1020 µg/mL.

As for `CO/N=C(\C(=O)N[C@@H]1C(=O)N2C(C(=O)O)=C(COC(C)=O)CS[C@H]12)c1csc(N)n1` [Cefotaxime], the MIC is more than 1020 µg/mL in the series with P. aeruginosa NCGM1984, not above 0.25 µg/mL with E. coli DH5α (pHSG398) and 16 µg/mL (≈ 35.1 µM) in [1].

Turning to `CO[C@@]1(NC(=O)Cc2cccs2)C(=O)N2C(C(=O)O)=C(COC(N)=O)CS[C@@H]21` [Cefoxitin], the figures for the MIC (in the series with P. aeruginosa NCGM1984; in the series on E. coli DH5α (pHSG398); in series [1]) were more than 1020 µg/mL, 2 µg/mL (≈ 4.68 µM) and 512 µg/mL (≈ 1200 µM), respectively.

As to `C[C@@H](O)[C@H]1C(=O)N2C(C(=O)O)=C(SCCN=CN)C[C@H]12` [Imipenem], the MIC with P. aeruginosa NCGM1984 is 512 µg/mL (≈ 1710 µM); in the series on E. coli DH5α (pHSG398), not above 0.25 µg/mL; in series [1], 0.5 µg/mL (≈ 1.67 µM).

For the molecule `CO/N=C(\C(=O)N[C@@H]1C(=O)N2C(C(=O)[O-])=C(C[n+]3ccn4ncccc43)CS[C@H]12)c1nsc(N)n1` [Cefozopran], the MIC was more than 1020 µg/mL in the series with P. aeruginosa NCGM1984, not above 0.25 µg/mL in the series on E. coli DH5α (pHSG398) and 4 µg/mL (≈ 7.76 µM) in [1].

Take IMP-1 (Serratia marcescens): the Km in [2] worked out at 685 ± 99 µM; in series [3], 26 ± 1 µM; in series [4] it was 34 ± 5 µM; in series [5], 39 ± 8 µM; in series [6] it was 58 ± 14 µM; in [7], 13 ± 2 µM. In addition, the Km in [8] came out at 37 ± 12 µM; in series [9] it was 341 ± 17 µM; in series [10], 73 ± 2 µM; in [11], 22 ± 8 µM. Also, the kcat in [2] was determined as 94 ± 12 s⁻¹; in series [3], 0.68 ± 0.01 s⁻¹; in series [4], 2.7 ± 0.1 s⁻¹; in series [5], 4.8 ± 0.1 s⁻¹; in series [6] it was 6.9 ± 0.5 s⁻¹; in series [7], 2.8 ± 0.1 s⁻¹. For the same molecule, the catalytic constant (kcat) in series [8] is 2.3 ± 0.2 s⁻¹; in [9], 16 ± 1 s⁻¹; in [10] it was 21 ± 1 s⁻¹; in series [11], 1.4 ± 0.2 s⁻¹. Besides, the kcat/Km in series [2] was 140000 M⁻¹ s⁻¹; in series [3], 26000 M⁻¹ s⁻¹; in series [4] it was 80000 M⁻¹ s⁻¹; in series [5], 130000 M⁻¹ s⁻¹; in [6], 120000 M⁻¹ s⁻¹; in series [7] it was 220000 M⁻¹ s⁻¹. Further, the kcat/Km in [8] came to 66000 M⁻¹ s⁻¹; in series [9], 48000 M⁻¹ s⁻¹; in series [10], 290000 M⁻¹ s⁻¹; in series [11], 68000 M⁻¹ s⁻¹.

As for `CC(C)(O/N=C(\C(=O)N[C@@H]1C(=O)N2C(C(=O)[O-])=C(C[n+]3ccccc3)CS[C@H]12)c1csc(N)n1)C(=O)O` [Ceftazidime], the “MIC (μg/ml) / P. aeruginosa NCGM1984” value against P. aeruginosa NCGM1984 was > 1,024 ug/mL. The MIC with E. coli DH5α (pHSG398) is not above 0.25 µg/mL; in series [1] it was 512 µg/mL (≈ 937 µM).

Turning to `CO/N=C(\C(=O)N[C@@H]1C(=O)N2C(C(=O)O)=C(CSc3nc(=O)c(O)nn3C)CS[C@H]12)c1csc(N)n1` [Ceftriaxone], the MIC was more than 1020 µg/mL in the series on P. aeruginosa NCGM1984, not above 0.25 µg/mL in the series with E. coli DH5α (pHSG398) and 64 µg/mL (≈ 115 µM) in series [1].

Regarding `CO[C@@]1(NC(=O)C(C(=O)O)c2ccc(O)cc2)C(=O)N2C(C(=O)O)=C(CSc3nnnn3C)CO[C@@H]21` (stereo partly shown) [Moxalactam], the MIC is more than 1020 µg/mL in the series on P. aeruginosa NCGM1984, not above 0.25 µg/mL in the series on E. coli DH5α (pHSG398) and 64 µg/mL (≈ 123 µM) in series [1].

Consider `CC1(C)S[C@@H]2[C@H](NC(=O)[C@H](N)c3ccccc3)C(=O)N2[C@H]1C(=O)O` [Ampicillin], for which the MIC in the series with P. aeruginosa NCGM1984 is more than 1020 µg/mL; in the series on E. coli DH5α (pHSG398), 2 µg/mL (≈ 5.72 µM); in series [1], 32 µg/mL (≈ 91.6 µM).

For the molecule `CO/N=C(\C(=O)N[C@@H]1C(=O)N2C(C(=O)O)=C(COC(N)=O)CS[C@H]12)c1ccco1` [Cefuroxime], the MIC with P. aeruginosa NCGM1984 is more than 1020 µg/mL; in the series with E. coli DH5α (pHSG398), 4 µg/mL (≈ 9.43 µM); in series [1], 256 µg/mL (≈ 603 µM).

As to `C[C@H]1[C@H](NC(=O)/C(=N\OC(C)(C)C(=O)O)c2csc(N)n2)C(=O)N1S(=O)(=O)O` [Aztreonam], the figures for the MIC (in the series with P. aeruginosa NCGM1984; in the series on E. coli DH5α (pHSG398); in series [1]) were 64 µg/mL (≈ 147 µM), not above 0.25 µg/mL and not above 0.25 µg/mL, respectively.

(Values after PMC4824433, “A Carbapenem-Resistant Pseudomonas aeruginosa Isolate Harboring Two Copies of blaIMP-34 Encoding a Metallo-β-Lactamase” (PLoS ONE, 2016).)
